“Also recorded” adds a separate entry of the source. Where two headings read alike, the source gives them in different places. Each block holds one molecule with its values, some of them ahead of it.
How the values were obtained:
HUVECs [1] = assay: Invasion of HUVECs through Matrigel-coated filter (Matrigel Invasion Chambers); format: cell-based, human; settings: measured at 20 μM; HUVECs
Procedure: HUVECs were purchased from Cedarlane Laboratories (Burlington, Canada) and maintained in Endothelial Cell Basal Medium-2 (EBM-2) supplemented with EGM-2 growth factor mixture (Clonetics) and 2% Foetal bovine serum. The cells were cultured at 37° C. under a humidified 95%/5% (v/v) mixture of air and CO2. Invasion of endothelial cells was measured using BD BioCoatTM Growth Factor Reduced MatrigelTM Invasion Chambers (Beckton-Dickinson; […]). EBM-2 medium (500 μL each) was placed into the lower wells. HUVECs (2.5×10^4) in EBM-2 serum-free medium (500 μL) were seeded into each of the upper wells and incubated in the presence of a test compound. HUVECs were allowed to migrate for 36 h at 37° C. in an atmosphere of 95% air/5% CO2. HUVECs that remained on the upper surface of the filter were removed using a cotton swab. HUVECs that had migrated to the lower surface of the filters were fixed with methanol, stained with 0.1% crystal violet/20% (v/v) methanol and examined using a Leitz Labovert (Leitz, Wetzlar, Germany) inverted microscope after mounting on a slide. Three randomly selected microscopic fields were digitally captured using a Nikon […] 995 digital camera and the number of HUVECs in each photograph were directly counted. Each reported value represents the average and standard deviation of a total […] from two independent experiments.

HUVECs [2] = assay: Matrigel endothelial cell capillary-tube formation assay; format: cell-based, human; settings: 22 h; for Activity (anti-angiogenicity): measured at 20 μM, HUVECs on Matrigel
Procedure: HUVECs were purchased from Cedarlane Laboratories (Burlington, Canada) and maintained in Endothelial Cell Basal Medium-2 (EBM-2) supplemented with EGM-2 growth factor mixture (Clonetics) and 2% Foetal bovine serum. The cells were cultured at 37° C. under a humidified 95%/5% (v/v) mixture of air and CO2.
Matrigel endothelial cell tube formation assays were performed using BD Matrigel™ (Becton, Dickinson). BD Matrigel™ was thawed at 4° C., and 150 μL were quickly added to each well of a 48-well plate and allowed to solidify for 60 min at 37° C. HUVECs (7×10^4 cells/mL) In EC basal medium-2 (EBM-2) were seeded 250 μL per well onto the surface of the solid BD Matrigel™ in the presence of the compounds to be tested. The cells were incubated for 22 h at […] in a 5% CO2 incubator. Tube formation was monitored by using a Leitz Labovert (Leitz, Wetzlar, Germany) inverted microscope. Two randomly selected two microscopic fields were photographed with a digital camera (Nikon, COOLPICKS 995). The total length of tube structures in each photograph was measured using ImageJ™ free software (http://rsb.info.nih.gov/ij/) and was normalized to that of control with no test compound. Each reported value represents the average of total six photographs from three independent experiments.

angiogenesis = settings: cited from earlier work; for Activity (angiogenic / anti-angiogenic): Ref. Thaker et al., 2006 (a), Ref. Basu et al., 2001 (b)
[3] = 2.47% instilled to normal human eyes; cited from earlier work
[4] = acute intravenous, mice; cited from earlier work
[5] = Storage stability of the eye drop at 4° C. (HPLC profiles); format: physicochemical; settings: 0.10% (w/v) eye drop, pH 5.5, one month of storage at 4° C.
retinal capillaries = assay: Glycation of retinal capillaries in diabetic rats (anti-glycated BSA / anti-lectin staining); format: in vivo, Sprague-Dawley rats
Procedure: Animal weights were monitored every week.
The effects of (S)-isoproterenol on diabetic retinopathy were studied by staining retinal capillaries with antibodies against lectin. The capillary density at the retinal center, corresponding to the macular of the human eye, was analyzed.
Diabetes induces glycation in retina. Since (S)-isoproterenol is a potent anti-glycation agent, penetration of (S)-isoproterenol reduces glycation in diabetic retinal capillaries. Thus, the retinas, which were stained with antibodies against lectin, were also stained with antibodies against glycated bovine serum albumin, and the degree of glycation of retinal capillaries was analyzed.

[6] = Optical stability (racemization) in eye drop formulations, 10 days at 55° C., chiral HPLC; format: physicochemical; settings: for % optical purity: 3.0 mg/mL, pH 6.0, starting material 99.87%
Procedure: The optical isomers of (S)-isoproterenol bitartrate and (S)-isoproterenol dipivalate hydrochloride were separated by HPLC using Shiseido chiral CD-Ph column (250×4.6 mm; 5 μm; isocratic 60:40 of 0.5 M sodium perchlorate/water and acetonitrile; flow rate, 1.0 mL/min). The elution profile was monitored by the absorption at 223 nm for isoproterenol bitartrate and 264 nm for isoproterenol dipivalate hydrochloride. The optical impurities were quantitated by the absorbance at 223 nm for isoproterenol bitartrate and 264 nm for isoproterenol dipivalate hydrochloride and by using a curve fitting software TABLECurve2D (Systat). The impurities of (R)-isoproterenol bitartrate and (R)-isoproterenol dipivalate hydrochloride were estimated as […], respectively. Thus, the racemization induced during synthesis and purification was minimal, if it occurred.
Table 2 describes the optical purities of (S)-isoproterenol and (S)-isoproterenol dipivalate after incubation in various eye drop formulations for 10 days at 55° C. and compared with those before incubation. The incubation for 10 days at 55° C. corresponds to the incubation for 167 days at 22° C.

[7] = in vivo; cited from earlier work

SMILES: CNCC(O)c1ccc(O)c(O)c1 (racemic) [(R,S)-Adrenaline]
- Activity (anti-invasion) (HUVECs [1]): Non-antiinvasive
- Activity (anti-angiogenicity) (HUVECs [2]): no anti-angiogenic activity
- Activity (angiogenic / anti-angiogenic) (angiogenesis): Angiogenic

SMILES: CC(C)(C)NCC(O)c1ccc(O)c(O)c1 (racemic) [(R,S)-N-tert-butylnoradrenaline]
- Activity (anti-angiogenicity) (HUVECs [2]): Anti-angiogenic
- Activity (anti-angiogenicity) (HUVECs [2]; listed as (R,S)—N-tert-butylnoradrenaline): anti-angiogenic activity

SMILES: CC(C)NCC(O)c1ccc(O)c(O)c1 (racemic) [(R,S)-isoproterenol, reference compound]
- Activity (anti-angiogenicity) (HUVECs [2]): did not show anti-angiogenic activity; also recorded: no anti-angiogenic activity; also recorded: Non-antiangiogenic
- duration of reduction in ocular tension [3]: at least 12 h
- reduction in ocular tension [3]: 20%

SMILES: CCC(NC(C)C)C(O)c1ccc(O)c(O)c1 (racemic) [Isoetharine, 1-(3,4-dihydroxyphenyl)-2-(Isopropylamino)-1(R,S)-butanol]
- Activity (anti-angiogenicity) (HUVECs [2]): Anti-angiogenic
- Activity (anti-angiogenicity) (HUVECs [2]; listed as isoetharine): anti-angiogenic activity

SMILES: CO[C@@H](CNC(C)C)c1ccc(O)c(O)c1 [(R)-1-(N-isopropyl)-3-methoxydopamine]
- Activity (anti-angiogenicity) (HUVECs [2]): Anti-angiogenic

SMILES: NC[C@H](O)c1ccc(O)c(O)c1 [(R)-Noradrenaline]
- Activity (angiogenic / anti-angiogenic) (angiogenesis): Angiogenic^a

SMILES: CC(C)NC[C@H](O)c1ccc(O)c(O)c1 [(R)-isoproterenol]
- LD50 [4]: 57 ± 2 mg/kg
- Activity (anti-invasion) (HUVECs [1]): did not show any anti-invasion activity; also recorded: Non-antiinvasive
- Activity (angiogenic / anti-angiogenic) (angiogenesis): Angiogenic
- Activity (angiogenic / anti-angiogenic) (angiogenesis; listed as (R)-Isoproterenol): angiogenic

SMILES: CO[C@H](CNC(C)C)c1ccc(O)c(O)c1 [(S)-1-(N-isopropyl)-3-methoxydopamine]
- Activity (anti-angiogenicity) (HUVECs [2]): Anti-angiogenic

SMILES: CCNC[C@@H](O)c1ccc(O)c(O)c1 [(S)-N-ethylnoradrenaline]
- Activity (anti-angiogenicity) (HUVECs [2]): Anti-angiogenic
- Activity (anti-angiogenicity) (HUVECs [2]; listed as (S)—N-ethylnoradrenaline): anti-angiogenic activity

SMILES: CCCCNC[C@@H](O)c1ccc(O)c(O)c1 [(S)-N-n-butylnoradrenaline]
- Activity (anti-angiogenicity) (HUVECs [2]): Anti-angiogenic
- Activity (anti-angiogenicity) (HUVECs [2]; listed as (S)—N-butylnoradrenaline): anti-angiogenic activity

SMILES: CCCNC[C@@H](O)c1ccc(O)c(O)c1 [(S)-N-n-propylnoradrenaline]
- Activity (anti-angiogenicity) (HUVECs [2]): Anti-angiogenic
- Activity (anti-angiogenicity) (HUVECs [2]; listed as (S)—N-propylnoradrenaline): anti-angiogenic activity

SMILES: NC[C@@H](O)c1ccc(O)c(O)c1 [(S)-Noradrenaline, reference compound]
- Activity (anti-angiogenicity) (HUVECs [2]): Non-antiangiogenic
- Activity (anti-angiogenicity) (HUVECs [2]; listed as (S)-noradrenaline): not anti-angiogenic

- degradation of the active ingredient in eye drop (HPLC profiles) [5]: No degradation
- conversion to the (R)-isoform ([6]; 10 days at 55° C.): 0.02%
- % optical purity ([6]; 10 days at 55° C., NaCl 8 mg/mL, Benzalkonium chloride 0.04 mg/mL, Tween 80 2.5 mg/mL): >99.90%
- % optical purity ([6]; 10 days at 55° C., Povidone 2 mg/mL, Benzalkonium chloride 0.04 mg/mL, D-Mannitol 54.7 mg/mL): 99.90%
- % optical purity ([6]; 10 days at 55° C., Povidone 2 mg/mL, D-Mannitol 54.7 mg/mL, Chlorobutanol 1 mg/mL, 2-hydroxypropyl cyclodextrin 10.1 mg/mL): 99.74%
- % optical purity ([6]; 10 days at 55° C., Povidone 2 mg/mL, NaCl 8 mg/mL, Benzalkonium chloride 0.04 mg/mL, 2-hydroxypropyl cyclodextrin 10.1 mg/mL): 99.86%
- average optical purity after incubating 10 days at 55° C. ([6]; average over the eye drop formulations): approximately 99.85±0.08%
- optical purity after 2 years of storage at room temperature ([6]; extrapolated, from 99.87%): 99.78%
- blood glucose level (Group II, non-diabetic rats receiving prodrug eye drop, 27 week period): 5.1 ± 0.4 mM
- blood glucose level (Group IV, diabetic rats receiving prodrug eye drop, stabilized level): 27 ± 5 mM
SMILES: CC(C)NC[C@@H](O)c1ccc(OC(=O)C(C)(C)C)c(OC(=O)C(C)(C)C)c1 [(S)-isoproterenol dipivalate]
- effect on glycation in retinal capillaries (retinal capillaries; 0.1% eye drop): significantly reduced the glycation in retinal capillaries
- red fluorescence intensity of AGEs normalized by the retinal capillary density (retinal capillaries; 0.1% eye drop twice a day, P 0.068 vs diabetic rats with vehicle): 0.44±0.17

SMILES: CNCC(O)c1ccc(OC(=O)C(C)(C)C)c(OC(=O)C(C)(C)C)c1 (centres unmarked) [Dipivefrin]
- enhancement of ocular absorption versus adrenaline [7]: 17 time

SMILES: NCCc1ccc(O)c(O)c1 [Dopamine]
- potency (inhibition of capillary tube formation) (HUVECs [2]; angiogenic assay condition used in FIG. 1, 1-50 μM): comparable potency
- concentration showing effective anti-angiogenic activity (angiogenesis; Basu et al., 2001): 1 µM
- Activity (angiogenic / anti-angiogenic) (angiogenesis): Anti-angiogenic^b

From patent publication US9351947B2, “Use of catecholamines and related compounds as anti-angiogenic agents” (National Research Council of Canada, priority 2007, dated 2016)
